Data set [1] in a line: In vitro photothermal heating with 808 nm and 852 nm lasers. To be noted: 808 nm laser. An excerpt: To assess the heating capacity of IcG and L-JA solutions, two different laser setups were utilized. All laser components including diodes, mounts, fiber optic cables, lens, and adapters were acquired from ThorLabs (Thorlabs Inc., Newton, NJ, USA) Two different laser diodes, one 808 nm the other 852 nm, were mounted, aligned, and focused in view of a high-resolution IR camera and tracked using accompanying software (Teledyne FLIR, Wilsonville, OR, USA). The 852 nm laser system included an optical isolator (ThorLabs) in the light path as recommended by the manufacturer, but otherwise the systems were identical. Laser power was calibrated to 1 W/cm^2 for both lasers and across all experiments. All experiments were conducted in 24- or 96-well plates filled with corresponding contrast agent solutions placed at the focus of the laser and IR camera.

The subject of a further data set is HUVECs. Put plainly: MTS cytotoxicity assay. The conditions noted are these: 24 hr incubation, p<0.05. It is filed as cell-based. How it is done:
The cytotoxicity of L-JA, IcG-JA, and IcG was evaluated on HUVECs and HEK-293T cell lines. The HUVECs were cultured in MCDB-131 medium supplemented with 10% (v/v) fetal bovine serum, 1% L-glutamine, 1% penicillin-streptomycin, and 1% endothelial cell growth supplement. The HEK-293T cells were cultured in Dulbecco's modified Eagle medium (DMEM) supplemented with 10% (v/v) fetal bovine serum and 1% penicillin-streptomycin. Both cell lines were incubated at 37° C. with 5% CO2 in a humidified atmosphere. The HUVEC and HEK-293T cells were seeded at the density of 10,000 cells per well and 5,000 cells per well in 96 well plates. After 24 hours, the culture media was replaced with fresh media containing L-JA, IcG-JA, and IcG at the concentration of 0.25 mM, 0.2 mM, 0.1 mM, and 0.05 mM. Cells incubated without particles were used as a control group. After 24 hours, the culture media was replaced with […] of fresh media. 20 μl of a mixture of [3-(4,5-dimethylthiazol-2-yl)-5-(3-carboxymethoxyphenyl)-2-(4-sulfophenyl)-2H-tetrazolium] (MTS) and phenazine ethosulfate (PES) was then added to each well. The cells were further incubated for 4 hours at 37° C. The absorbance signal at 490 nm was measured using a BioTek plate reader.

Data set [2] is described as follows: Photostability during pulsed-laser photoacoustic imaging. It is filed as physicochemical. How it is done: All photoacoustic imaging was performed using the VEVO LAZR-X and F2 Systems (FUJIFILM VisualSonics, Toronto, Canada). The system was calibrated per manufacturer instructions prior to all experiments. Equal concentrations of IcG, IcG-JA, and L-JA were loaded into the plastic tubes before coupling the imaging phantom to the transducer with ultrasound gel. For base characterization, a full spectral scan from 680 nm to 970 nm was performed. Photostability measurements were obtained by imaging at either 800 nm or 890 nm for 30 minutes. At five-minute intervals, which equated to nearly every 1400 pulses (˜280 pulses per minute), the scan was paused to allow for a full spectral scan to be performed. RAW data files from the system were exported and were analyzed using custom software written in MATLAB.

Data set [3] relates to mouse kidney and surrounding tissue. The data set is described as follows: In vivo contrast enhancement and circulation by photoacoustic imaging. Also noted: species or system mice. To be noted: systemic administration. An excerpt: Particle circulation was monitored by imaging the mouse kidney and surrounding tissue. The kidney is a high blood flow organ that has the distinct advantage of being easily and rapidly identifiable using ultrasound imaging. Simple setup and identification decreases the amount of time animals are under anesthesia and limits any potential artificial lowering of SO2 due to prolonged exposure to anesthetic agents. Once prepped, mice placed in the imaging system were imaged with power-doppler to confirm blood flow and baseline values for SO2 and contrast agent signals (FIG. 13). Following a bolus injection of a 5 mg/kg dose of contrast agent via the tail vein, the same region was monitored at varying time points. After processing with FUJIFILM VisualSonics' proprietary spectral unmixing software the images were analyzed using in-house MATLAB software. Power-doppler images guide the placement of ROIs around areas of high blood flow allowing isolation and calculation of SO2 and contrast agent signal over the course of imaging.
To assess their performance in vivo, particles were injected intravenously via the tail vein. Particle circulation was monitored by imaging the mouse kidney and surrounding tissue. […] Following a bolus injection of contrast agent via the tail vein, the same region was monitored at multiple time points. […]

Entries after “also recorded” stand apart in the source; their conditions may differ.

Consider `CC1(C)C(/C=C/C=C/C=C/C=C2\N(CCCCS(=O)(=O)O)c3ccc4ccccc4c3C2(C)C)=[N+](CCCCS(=O)(=O)[O-])c2ccc3ccccc3c21` [IcG, Indocyanine Green], for which the “behaviour on repeated (cyclic) laser heating (in words)” value in data set [1] was “can only be heated once”. The “concentration at which significant cytotoxicity relative to control occurs” value in the data set on HUVECs stood at 200 µM. In addition, the “time until PA signal fully quenches” value in data set [2] (800 nm laser pulses) amounted to 25 min. For the same molecule, the photoacoustic signal drop result in data set [2] (800 nm laser pulses, just under 5 pulses per second, after just over 5 minutes / between 5 and 10 minutes) was “more than 50%”. Also, the “photodegradation (in words)” value in data set [2] (30 minutes of imaging at 800 nm) is “completely photodegraded”. In addition, in data set [3], the “clearance / circulation (in words)” value is reported as “cleared from circulation within an hour; also recorded: fully cleared over the course of a few minutes”.
